Data on 20 compounds can be found in patent publication US11584714B2 (priority 2018, dated 2023).

pKi: −log10 of the molar value. Where a name gives a salt, the structure may show the parent alone. Read-outs that look alike come from different tables or passages of the source. Where only a bound is given, the exact number is not on record here.

What all share (type): biochemical
Experiment [1] concerns the target MASP-2 (CCP1-CCP2-SP) (Homo sapiens (Human), UniProt O00187). The experiment is described as follows: biochemical. The note with it: for MASP-2 vs. thrombin selectivity: selectivity for MASP-2 inhibition versus thrombin.
Experiment [2] deals with mMASP-2 (Mus musculus (Mouse), UniProt Q91WP0). The experiment is described as follows: Enzymatic inhibition of mMASP-2. Particulars: read-out: mMASP-2 Ki.
Sequence of mMASP-2 (Q91WP0 20-685): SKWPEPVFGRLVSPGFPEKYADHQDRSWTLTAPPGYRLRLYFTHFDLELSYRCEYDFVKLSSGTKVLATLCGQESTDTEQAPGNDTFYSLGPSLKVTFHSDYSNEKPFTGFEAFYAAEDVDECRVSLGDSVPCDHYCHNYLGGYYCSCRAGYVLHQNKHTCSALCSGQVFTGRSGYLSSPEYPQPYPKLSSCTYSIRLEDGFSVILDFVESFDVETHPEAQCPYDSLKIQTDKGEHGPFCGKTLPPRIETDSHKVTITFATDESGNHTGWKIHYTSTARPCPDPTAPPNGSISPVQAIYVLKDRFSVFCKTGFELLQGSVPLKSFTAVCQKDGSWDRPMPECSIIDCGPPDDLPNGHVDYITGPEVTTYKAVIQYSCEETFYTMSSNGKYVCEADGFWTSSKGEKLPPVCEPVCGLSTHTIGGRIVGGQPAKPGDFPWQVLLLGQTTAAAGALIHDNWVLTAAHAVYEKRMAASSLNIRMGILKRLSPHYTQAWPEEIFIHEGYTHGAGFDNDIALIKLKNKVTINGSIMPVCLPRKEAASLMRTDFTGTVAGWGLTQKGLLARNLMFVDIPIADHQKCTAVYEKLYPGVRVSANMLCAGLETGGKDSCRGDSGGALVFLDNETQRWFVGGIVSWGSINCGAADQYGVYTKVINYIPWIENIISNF
The target of experiment [3] is human α-thrombin (Homo sapiens (Human), UniProt P00734). The experiment is described as follows: Enzymatic assay for thrombin (Boc-VPR-AMC substrate). Particulars: for pKi: read-out: Thrombin Ki; for Ki: Thrombin Ki (μM).

Sequence of MASP-2 (CCP1-CCP2-SP) (O00187 445-686): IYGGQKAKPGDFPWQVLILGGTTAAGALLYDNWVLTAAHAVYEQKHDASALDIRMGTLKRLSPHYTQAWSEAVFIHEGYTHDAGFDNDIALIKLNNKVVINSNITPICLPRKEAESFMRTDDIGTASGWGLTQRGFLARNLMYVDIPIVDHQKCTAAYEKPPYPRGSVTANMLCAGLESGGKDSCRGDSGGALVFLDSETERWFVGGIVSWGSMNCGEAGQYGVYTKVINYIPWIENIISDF

Regarding `Cc1nc(N)ccc1CNC(=O)[C@H](C)NC(=O)[C@H]1C[C@@H](c2ccccc2)CCN1CCCCCC(=O)O` [compound 1412, 6-((2R,4S)-2-(((S)-1-(((6-Amino-2-methylpyridin-3-yl)methyl)amino)-1-oxopropan-2-yl)carbamoyl)-4-phenylpiperidin-1-yl)hexanoic acid Trifluoroacetate salt], the pKi (commonly −log10 of the Ki, conventionally taken in molar units) in experiment [1] (read-out: MASP-2 Ki) was more than 6.30; in experiment [2] it was 5.00 to 5.60; in experiment [3], less than 4.60.
On to `CC[C@H]1N[C@@H](C(=O)N[C@@H](C)C(=O)NCc2ccc(N)nc2C)C[C@@H]1Cc1ccccc1` [compound 1413, (2R,4S,5R)—N—((S)-1-(((6-Amino-2-methylpyridin-3-yl)methyl)amino)-1-oxopropan-2-yl)-4-benzyl-5-ethylpyrrolidine-2-carboxamide Di-trifluoroacetate salt], for which the negative logarithm of the Ki (pKi) was 5.60 to 6.30 in experiment [1], 5.00 to 5.60 in experiment [2] and less than 4.60 in experiment [3]. The “MASP-2 vs. thrombin selectivity” value in experiment [1] is “*** (≥25 to <100-fold)”.
On to `C[C@H](NC(=O)[C@H]1C[C@H](c2ccccc2)CN1)C(=O)NCc1cc(Cl)c2[nH]cnc2c1` [compound 1417, (2R,4R)—N—((S)-1-(((7-Chloro-1H-benzo[d]imidazol-5-yl)methyl)amino)-1-oxopropan-2-yl)-4-phenylpyrrolidine-2-carboxamide Trifluoroacetate salt], for which the negative-log Ki (pKi) in experiment [1] was 5.60 to 6.30; in experiment [2], 5.00 to 5.60; in experiment [3], less than 4.60.
For `Cc1nc2cc(CNC(=O)[C@H](C)NC(=O)[C@H]3C[C@H](c4ccccc4)CN3)cc(Cl)c2[nH]1` [compound 1418, (2R,4R)—N—((S)-1-(((7-Chloro-2-methyl-1H-benzo[d]imidazol-5-yl)methyl)amino)-1-oxopropan-2-yl)-4-phenylpyrrolidine-2-carboxamide Trifluoroacetate salt], the figures for the negative logarithm of the Ki (pKi) in experiment [1], in experiment [2] and in experiment [3] were 5.00 to 5.60, 4.60 to 5.00 and less than 4.60, respectively.
Turning to `Cc1nc(N)ccc1CNC(=O)[C@H](C)NC(=O)[C@H]1C[C@H](Cc2cccc(C(=O)N3CCC3)c2)CN1` [compound 1420, (2R,4S)—N—((S)-1-(((6-Amino-2-methylpyridin-3-yl)methyl)amino)-1-oxopropan-2-yl)-4-(3-(azetidine-1-carbonyl)benzyl)pyrrolidine-2-carboxamide Di-trifluoroacetate salt], the negative-log Ki (pKi) in experiment [1] (read-out: MASP-2 Ki) and in experiment [2] was more than 6.30 throughout. Moreover, the “MASP-2 vs. thrombin selectivity” value in experiment [1] was “**** (≥100-fold)”. Moreover, the inhibition constant Ki (as a rule, a measure of affinity in units of concentration, obtained from inhibition or displacement) in experiment [3] was in the range of 2.5 to 10 µM.
As to `Cc1nc(N)ccc1CNC(=O)[C@H](C)NC(=O)[C@H]1C[C@H](Cc2cc(Br)no2)CN1` [compound 1421, (2R,4R)—N—((S)-1-(((6-Amino-2-methylpyridin-3-yl)methyl)amino)-1-oxopropan-2-yl)-4-((3-bromoisoxazol-5-yl)methyl)pyrrolidine-2-carboxamide Di-trifluoroacetate salt], the negative-log Ki (pKi) is more than 6.30 in experiment [1] (read-out: MASP-2 Ki) and 5.60 to 6.30 in experiment [2]. Further, the “MASP-2 vs. thrombin selectivity” value in experiment [1] is “**** (≥100-fold)”. In addition, in experiment [3], the Ki was in the range of 10 to 25 µM.
For the compound `Cc1nc(N)ccc1CNC(=O)[C@H](C)NC(=O)[C@H]1C[C@H](Cc2cc(C(F)(F)F)cc(C(F)(F)F)c2)CN1` [compound 1424, (2R,4S)—N—((S)-1-(((6-Amino-2-methylpyridin-3-yl)methyl)amino)-1-oxopropan-2-yl)-4-(3,5-bis(trifluoromethyl)benzyl)pyrrolidine-2-carboxamide Di-trifluoroacetate salt], the pKi is 5.60 to 6.30 in experiment [1], 5.60 to 6.30 in experiment [2] and more than 6.30 in experiment [3].
As for `C[C@H](NC(=O)[C@H]1C[C@H](c2ccccc2)CN1)C(=O)NCc1ccc2c(N)n[nH]c2c1` [compound 1425, (2R,4R)—N—((S)-1-(((3-Amino-1H-indazol-6-yl)methyl)amino)-1-oxopropan-2-yl)-4-phenylpyrrolidine-2-carboxamide Trifluoroacetate salt], the figures for the pKi in experiment [1], in experiment [2] and in experiment [3] were 5.00 to 5.60, 5.60 to 6.30 and less than 4.60, respectively.
With `C[C@H](NC(=O)[C@H]1C[C@@H](c2ccccc2)CCN1)C(=O)NCc1cc(Cl)ccc1-n1cnnn1` [compound 1426, (2R,4S)—N—((S)-1-((5-Chloro-2-(1H-tetrazol-1-yl)benzyl)amino)-1-oxopropan-2-yl)-4-phenylpiperidine-2-carboxamide Trifluoroacetate], the values for the pKi in experiment [1] (read-out: MASP-2 Ki) and in experiment [2] were more than 6.30 and 5.60 to 6.30, respectively. Also, the “MASP-2 vs. thrombin selectivity” value in experiment [1] was “*** (≥25 to <100-fold)”. For the same compound, in experiment [3], the Ki was 0.5 to 2.5 µM.
In the case of `Cc1nc(N)ccc1CNC(=O)[C@H](C)NC(=O)[C@H]1C[C@H](Cc2ccc(Cc3ccccc3)cc2)CN1` [compound 1427, (2R,4S)—N—((S)-1-(((6-Amino-2-methylpyridin-3-yl)methyl)amino)-1-oxopropan-2-yl)-4-(4-benzylbenzyl)pyrrolidine-2-carboxamide di-trifluoroacetate salt], the negative-log Ki (pKi) in experiment [1] (read-out: MASP-2 Ki) is more than 6.30; in experiment [2] it was more than 6.30; in experiment [3] it was less than 4.60. The “MASP-2 vs. thrombin selectivity” value in experiment [1] was “**** (≥100-fold)”.
With `C[C@H](NC(=O)[C@H]1C[C@H](c2ccccc2)CN1)C(=O)NCc1ccc2nccn2c1` [compound 1434, (2R,4R)—N—((S)-1-((Imidazo[1,2-a]pyridin-6-ylmethyl)amino)-1-oxopropan-2-yl)-4-phenylpyrrolidine-2-carboxamide Dihydrochloride], the pKi was 4.60 to 5.00 in experiment [1], 4.60 to 5.00 in experiment [2] and less than 4.60 in experiment [3].
`Cc1cc(Br)cc(CNC(=O)[C@H](C)NC(=O)[C@H]2C[C@H](Cc3ccccc3)CN2)c1-n1cnnn1` [compound 1436, (2R,4S)-4-Benzyl-N-((S)-1-((5-bromo-3-methyl-2-(1H-tetrazol-1-yl)benzyl)amino)-1-oxopropan-2-yl)pyrrolidine-2-carboxamide Trifluoroacetate]: in experiment [1], the pKi is 5.60 to 6.30 and the “MASP-2 vs. thrombin selectivity” value is on record as “** (≥5.0 to <25-fold)”. Further, the negative logarithm of the Ki (pKi) in experiment [2] was less than 4.60. Also, in experiment [3], the inhibitory constant (Ki) is 10 to 25 µM.
Regarding `Cc1nc(N)ccc1CNC(=O)[C@H](C)NC(=O)[C@H]1C[C@@H](c2ccccc2)CCN1CCCC(=O)O` [compound 1439, 4-((2R,4S)-2-(((S)-1-(((6-Amino-2-methylpyridin-3-yl)methyl)amino)-1-oxopropan-2-yl)carbamoyl)-4-phenylpiperidin-1-yl)butanoic acid Trifluoroacetate salt], the negative-log Ki (pKi) in experiment [1] (read-out: MASP-2 Ki) was more than 6.30; in experiment [2], 5.00 to 5.60; in experiment [3], less than 4.60.
As to `CCOC(=O)CCCN1CC[C@H](c2ccccc2)C[C@@H]1C(=O)N[C@@H](C)C(=O)NCc1ccc(N)nc1C` [compound 1440, Ethyl 4-((2R,4S)-2-(((S)-1-(((6-amino-2-methylpyridin-3-yl)methyl)amino)-1-oxopropan-2-yl)carbamoyl)-4-phenylpiperidin-1-yl)butanoate], the results for the pKi in experiment [1] (read-out: MASP-2 Ki), in experiment [2] and in experiment [3] were more than 6.30, 5.00 to 5.60 and less than 4.60, respectively.
Consider `C[C@H](NC(=O)[C@H]1C[C@H](c2ccccc2)CN1)C(=O)NCc1cnc2c(c1)c(Cl)cn2C` [compound 1442, (2R,4R)—N—((S)-1-(((3-Chloro-1-methyl-1H-pyrrolo[2,3-b]pyridin-5-yl)methyl)amino)-1-oxopropan-2-yl)-4-phenylpyrrolidine-2-carboxamide Dihydrochloride], for which the pKi in experiment [1] (read-out: MASP-2 Ki) is more than 6.30; in experiment [2] it was more than 6.30; in experiment [3], less than 4.60.
Take `C[C@H](NC(=O)[C@H]1C[C@H](Cc2ccccc2)CN1)C(=O)NCc1cc(Cl)cc(Cl)c1O` [compound 1448, (2R,4S)-4-benzyl-N-((S)-1-((3,5-dichloro-2-hydroxybenzyl)amino)-1-oxopropan-2-yl)pyrrolidine-2-carboxamide, hydrochloride]: the negative logarithm of the Ki (pKi) in experiment [1] (read-out: MASP-2 Ki) was more than 6.30; in experiment [2] it was 5.00 to 5.60; in experiment [3], less than 4.60. Moreover, in experiment [1], the “MASP-2 vs. thrombin selectivity” value was “**** (≥100-fold)”.
Take `Cc1nc(N)ccc1CNC(=O)[C@H](C)NC(=O)[C@H]1C[C@H](Cc2ccc(OC(F)(F)F)c(Cl)c2)CN1` [compound 1455, (2R,4S)—N—((S)-1-(((6-Amino-2-methylpyridin-3-yl)methyl)amino)-1-oxopropan-2-yl)-4-(3-chloro-4-(trifluoromethoxy)benzyl)pyrrolidine-2-carboxamide Di-trifluoroacetate salt]: the negative logarithm of the Ki (pKi) in experiment [1] (read-out: MASP-2 Ki) was more than 6.30; in experiment [2] it was more than 6.30; in experiment [3], less than 4.60. Moreover, the “MASP-2 vs. thrombin selectivity” value in experiment [1] is “**** (≥100-fold)”.
Turning to `C[C@H](NC(=O)[C@H]1C[C@H](c2ccccc2)CN1)C(=O)NCc1cnc2cccc(Cl)c2c1` [compound 1457, (2R,4R)—N—((S)-1-(((5-chloroquinolin-3-yl)methyl)amino)-1-oxopropan-2-yl)-4-phenylpyrrolidine-2-carboxamide], the figures for the negative-log Ki (pKi) in experiment [1], in experiment [2] and in experiment [3] were 4.60 to 5.00, 5.00 to 5.60 and less than 4.60, respectively.
Take `Cc1nc(N)ccc1CNC(=O)[C@H](C)NC(=O)[C@H]1C[C@H](Cc2cc3ccccc3s2)CN1` [compound 1458, (2R,4R)—N—((S)-1-(((6-Amino-2-methylpyridin-3-yl)methyl)amino)-1-oxopropan-2-yl)-4-(benzo[b]thiophen-2-ylmethyl)pyrrolidine-2-carboxamide Di-trifluoroacetate salt]: the figures for the negative-log Ki (pKi) in experiment [1] (read-out: MASP-2 Ki), in experiment [2] and in experiment [3] were more than 6.30, more than 6.30 and less than 4.60, respectively. Also, the “MASP-2 vs. thrombin selectivity” value in experiment [1] is recorded as “**** (≥100-fold)”.
Turning to `Cc1nc(N)ccc1CNC(=O)[C@H](C)NC(=O)[C@H]1C[C@H](Cc2ccc(F)c(Cl)c2)CN1` [compound 1459, (2R,4S)—N—((S)-1-(((6-Amino-2-methylpyridin-3-yl)methyl)amino)-1-oxopropan-2-yl)-4-(3-chloro-4-fluorobenzyl)pyrrolidine-2-carboxamide Di-trifluoroacetate salt], the pKi in experiment [1] (read-out: MASP-2 Ki) and in experiment [2] was more than 6.30 in each case. For the same compound, in experiment [1], the “MASP-2 vs. thrombin selectivity” value was “**** (≥100-fold)”. For the same compound, in experiment [3], the Ki fell in the range of 2.5 to 10 µM.
